From the NIST ThermoML archive (doi:10.1016/j.jct.2016.06.016)

Assay: xn = mol fraction of the nth substance listed
Conditions: 100 kPa, Liquid; for viscosity: Concentric cylinders viscometry; for mass density: Vibrating tube method

CCOC(=O)CCC(=O)OCC [diethyl butanedioate] + CCCCCCO
Conditions | mass density [kg/m3] | viscosity [mPa·s]
288.15 K, x1 = 0.0999 | 849.53 | 4.539
288.15 K, x1 = 0.2 | 875.7 | 3.729
288.15 K, x1 = 0.3001 | 900.45 | 3.285
288.15 K, x1 = 0.4 | 923.97 | 3.019
288.15 K, x1 = 0.4999 | 946.39 | 2.869
288.15 K, x1 = 0.6 | 967.72 | 2.789
288.15 K, x1 = 0.7002 | 988.27 | 2.788
288.15 K, x1 = 0.7999 | 1007.86 | 2.856
288.15 K, x1 = 0.9 | 1026.75 | 2.954
288.15 K, x1 = 1 | 1044.83 | 3.195
293.15 K, x1 = 0.0999 | 845.73 | 3.876
293.15 K, x1 = 0.2 | 871.67 | 3.213
293.15 K, x1 = 0.3001 | 896.23 | 2.842
293.15 K, x1 = 0.4 | 919.56 | 2.62
293.15 K, x1 = 0.4999 | 941.82 | 2.495
293.15 K, x1 = 0.6 | 963 | 2.432
293.15 K, x1 = 0.7002 | 983.42 | 2.435
293.15 K, x1 = 0.7999 | 1002.88 | 2.495
293.15 K, x1 = 0.9 | 1021.66 | 2.61
293.15 K, x1 = 1 | 1039.63 | 2.807
298.15 K, x1 = 0.0999 | 841.91 | 3.358
298.15 K, x1 = 0.2 | 867.63 | 2.817
298.15 K, x1 = 0.3001 | 891.99 | 2.508
298.15 K, x1 = 0.4 | 915.15 | 2.327
298.15 K, x1 = 0.4999 | 937.24 | 2.231
298.15 K, x1 = 0.6 | 958.28 | 2.18
298.15 K, x1 = 0.7002 | 978.57 | 2.188
298.15 K, x1 = 0.7999 | 997.91 | 2.24
298.15 K, x1 = 0.9 | 1016.57 | 2.337
298.15 K, x1 = 1 | 1034.44 | 2.491
303.15 K, x1 = 0.0999 | 838.07 | 2.932
303.15 K, x1 = 0.2 | 863.58 | 2.477
303.15 K, x1 = 0.3001 | 887.75 | 2.222
303.15 K, x1 = 0.4 | 910.73 | 2.071
303.15 K, x1 = 0.4999 | 932.67 | 1.99
303.15 K, x1 = 0.6 | 953.56 | 1.952
303.15 K, x1 = 0.7002 | 973.72 | 1.962
303.15 K, x1 = 0.7999 | 992.94 | 2.01
303.15 K, x1 = 0.9 | 1011.5 | 2.098
303.15 K, x1 = 1 | 1029.25 | 2.229
308.15 K, x1 = 0.0999 | 834.22 | 2.572
308.15 K, x1 = 0.2 | 859.52 | 2.193
308.15 K, x1 = 0.3001 | 883.49 | 1.98
308.15 K, x1 = 0.4 | 906.3 | 1.854
308.15 K, x1 = 0.4999 | 928.09 | 1.788
308.15 K, x1 = 0.6 | 948.84 | 1.759
308.15 K, x1 = 0.7002 | 968.87 | 1.77
308.15 K, x1 = 0.7999 | 987.97 | 1.816
308.15 K, x1 = 0.9 | 1006.42 | 1.893
308.15 K, x1 = 1 | 1024.08 | 2.008
313.15 K, x1 = 0.0999 | 830.34 | 2.276
313.15 K, x1 = 0.2 | 855.43 | 1.961
313.15 K, x1 = 0.3001 | 879.22 | 1.783
313.15 K, x1 = 0.4 | 901.87 | 1.679
313.15 K, x1 = 0.4999 | 923.5 | 1.626
313.15 K, x1 = 0.6 | 944.11 | 1.604
313.15 K, x1 = 0.7002 | 964.01 | 1.617
313.15 K, x1 = 0.7999 | 983 | 1.659
313.15 K, x1 = 0.9 | 1001.34 | 1.729
313.15 K, x1 = 1 | 1018.9 | 1.821
318.15 K, x1 = 0.0999 | 826.44 | 2.013
318.15 K, x1 = 0.2 | 851.33 | 1.748
318.15 K, x1 = 0.3001 | 874.93 | 1.598
318.15 K, x1 = 0.4 | 897.41 | 1.511
318.15 K, x1 = 0.4999 | 918.89 | 1.468
318.15 K, x1 = 0.6 | 939.37 | 1.452
318.15 K, x1 = 0.7002 | 959.15 | 1.467
318.15 K, x1 = 0.7999 | 978.02 | 1.506
318.15 K, x1 = 0.9 | 996.26 | 1.57
318.15 K, x1 = 1 | 1013.72 | 1.66
323.15 K, x1 = 0.0999 | 822.52 | 1.817
323.15 K, x1 = 0.2 | 847.2 | 1.584
323.15 K, x1 = 0.3001 | 870.62 | 1.458
323.15 K, x1 = 0.4 | 892.94 | 1.386
323.15 K, x1 = 0.4999 | 914.27 | 1.344
323.15 K, x1 = 0.6 | 934.62 | 1.337
323.15 K, x1 = 0.7002 | 954.28 | 1.353
323.15 K, x1 = 0.7999 | 973.05 | 1.391
323.15 K, x1 = 0.9 | 991.18 | 1.448
323.15 K, x1 = 1 | 1008.55 | 1.523

CCOC(=O)CCC(=O)OCC [diethyl butanedioate] + CCCCO
Conditions | mass density [kg/m3] | viscosity [mPa·s]
288.15 K, x1 = 0.1 | 851.32 | 2.665
288.15 K, x1 = 0.2001 | 884.48 | 2.382
288.15 K, x1 = 0.3 | 913.45 | 2.302
288.15 K, x1 = 0.3999 | 938.87 | 2.306
288.15 K, x1 = 0.5 | 961.37 | 2.342
288.15 K, x1 = 0.6001 | 981.44 | 2.405
288.15 K, x1 = 0.6998 | 999.46 | 2.515
288.15 K, x1 = 0.7999 | 1015.94 | 2.692
288.15 K, x1 = 0.8997 | 1031 | 2.934
288.15 K, x1 = 1 | 1044.83 | 3.195
293.15 K, x1 = 0.1 | 847.26 | 2.339
293.15 K, x1 = 0.2001 | 880.14 | 2.106
293.15 K, x1 = 0.3 | 908.86 | 2.041
293.15 K, x1 = 0.3999 | 934.12 | 2.045
293.15 K, x1 = 0.5 | 956.51 | 2.077
293.15 K, x1 = 0.6001 | 976.5 | 2.133
293.15 K, x1 = 0.6998 | 994.45 | 2.228
293.15 K, x1 = 0.7999 | 1010.87 | 2.38
293.15 K, x1 = 0.8997 | 1025.85 | 2.585
293.15 K, x1 = 1 | 1039.63 | 2.807
298.15 K, x1 = 0.1 | 843.14 | 2.072
298.15 K, x1 = 0.2001 | 875.78 | 1.877
298.15 K, x1 = 0.3 | 904.32 | 1.825
298.15 K, x1 = 0.3999 | 929.42 | 1.831
298.15 K, x1 = 0.5 | 951.69 | 1.861
298.15 K, x1 = 0.6001 | 971.57 | 1.914
298.15 K, x1 = 0.6998 | 989.44 | 2.003
298.15 K, x1 = 0.7999 | 1005.79 | 2.141
298.15 K, x1 = 0.8997 | 1020.71 | 2.318
298.15 K, x1 = 1 | 1034.44 | 2.491
303.15 K, x1 = 0.1 | 838.99 | 1.845
303.15 K, x1 = 0.2001 | 871.41 | 1.682
303.15 K, x1 = 0.3 | 899.78 | 1.64
303.15 K, x1 = 0.3999 | 924.74 | 1.649
303.15 K, x1 = 0.5 | 946.87 | 1.678
303.15 K, x1 = 0.6001 | 966.65 | 1.727
303.15 K, x1 = 0.6998 | 984.43 | 1.806
303.15 K, x1 = 0.7999 | 1000.71 | 1.925
303.15 K, x1 = 0.8997 | 1015.58 | 2.078
303.15 K, x1 = 1 | 1029.25 | 2.229
308.15 K, x1 = 0.1 | 834.83 | 1.65
308.15 K, x1 = 0.2001 | 867.03 | 1.515
308.15 K, x1 = 0.3 | 895.21 | 1.482
308.15 K, x1 = 0.3999 | 920.02 | 1.492
308.15 K, x1 = 0.5 | 942.04 | 1.52
308.15 K, x1 = 0.6001 | 961.72 | 1.564
308.15 K, x1 = 0.6998 | 979.42 | 1.635
308.15 K, x1 = 0.7999 | 995.63 | 1.741
308.15 K, x1 = 0.8997 | 1010.45 | 1.876
308.15 K, x1 = 1 | 1024.08 | 2.008
313.15 K, x1 = 0.1 | 830.64 | 1.49
313.15 K, x1 = 0.2001 | 862.62 | 1.379
313.15 K, x1 = 0.3 | 890.63 | 1.355
313.15 K, x1 = 0.3999 | 915.3 | 1.366
313.15 K, x1 = 0.5 | 937.2 | 1.394
313.15 K, x1 = 0.6001 | 956.78 | 1.437
313.15 K, x1 = 0.6998 | 974.41 | 1.502
313.15 K, x1 = 0.7999 | 990.55 | 1.596
313.15 K, x1 = 0.8997 | 1005.31 | 1.712
313.15 K, x1 = 1 | 1018.9 | 1.821
318.15 K, x1 = 0.1 | 826.42 | 1.337
318.15 K, x1 = 0.2001 | 858.18 | 1.245
318.15 K, x1 = 0.3 | 886.02 | 1.226
318.15 K, x1 = 0.3999 | 910.54 | 1.239
318.15 K, x1 = 0.5 | 932.33 | 1.266
318.15 K, x1 = 0.6001 | 951.83 | 1.307
318.15 K, x1 = 0.6998 | 969.38 | 1.367
318.15 K, x1 = 0.7999 | 985.47 | 1.451
318.15 K, x1 = 0.8997 | 1000.18 | 1.556
318.15 K, x1 = 1 | 1013.72 | 1.66
323.15 K, x1 = 0.1 | 822.17 | 1.218
323.15 K, x1 = 0.2001 | 853.72 | 1.142
323.15 K, x1 = 0.3 | 881.38 | 1.129
323.15 K, x1 = 0.3999 | 905.78 | 1.143
323.15 K, x1 = 0.5 | 927.46 | 1.169
323.15 K, x1 = 0.6001 | 946.87 | 1.208
323.15 K, x1 = 0.6998 | 964.35 | 1.264
323.15 K, x1 = 0.7999 | 980.38 | 1.342
323.15 K, x1 = 0.8997 | 995.05 | 1.435
323.15 K, x1 = 1 | 1008.55 | 1.523
